In patent US20060211726A1, “Ascomycin derivatives for combination treatment with tazorotene” (priority 2005, published 2006):

Tested on: psoriasis
Experiment: Topical treatment of a person suffering from psoriasis
Type: in vivo
Settings: 0.1% Protopic ointment twice a day plus 0.1% tazarotene (Tazorac) once a day in the same person; compared with 0.1% tazarotene alone once a day or 0.1% tacrilomus alone twice a day
Experimental: A composition according to one of examples 1-3 is administered topically once a day to person suffering from psoriasis.
Tacrilomus is administered twice a day as 0.1% Protopic® ointment to a person suffering from psoriasis. The same person receives 0.1% tazarotene as Tazorac® ointment once a day.

## C=CC[C@@H]1/C=C(\C)C[C@H](C)C[C@H](OC)[C@H]2O[C@@](O)(C(=O)C(=O)N3CCCC[C@H]3C(=O)O[C@H](/C(C)=C/[C@@H]3CC[C@@H](O)[C@H](OC)C3)[C@H](C)[C@@H](O)CC1=O)[C@H](C)C[C@@H]2OC [Tacrilomus, tacrolimus]
  Improvement of symptoms (efficacy): greater efficacy
  side effects: fewer side effects
